The target of test [1] is T1, Axl (Homo sapiens, UniProt P30530).
T1 sequence (P30530 26-894): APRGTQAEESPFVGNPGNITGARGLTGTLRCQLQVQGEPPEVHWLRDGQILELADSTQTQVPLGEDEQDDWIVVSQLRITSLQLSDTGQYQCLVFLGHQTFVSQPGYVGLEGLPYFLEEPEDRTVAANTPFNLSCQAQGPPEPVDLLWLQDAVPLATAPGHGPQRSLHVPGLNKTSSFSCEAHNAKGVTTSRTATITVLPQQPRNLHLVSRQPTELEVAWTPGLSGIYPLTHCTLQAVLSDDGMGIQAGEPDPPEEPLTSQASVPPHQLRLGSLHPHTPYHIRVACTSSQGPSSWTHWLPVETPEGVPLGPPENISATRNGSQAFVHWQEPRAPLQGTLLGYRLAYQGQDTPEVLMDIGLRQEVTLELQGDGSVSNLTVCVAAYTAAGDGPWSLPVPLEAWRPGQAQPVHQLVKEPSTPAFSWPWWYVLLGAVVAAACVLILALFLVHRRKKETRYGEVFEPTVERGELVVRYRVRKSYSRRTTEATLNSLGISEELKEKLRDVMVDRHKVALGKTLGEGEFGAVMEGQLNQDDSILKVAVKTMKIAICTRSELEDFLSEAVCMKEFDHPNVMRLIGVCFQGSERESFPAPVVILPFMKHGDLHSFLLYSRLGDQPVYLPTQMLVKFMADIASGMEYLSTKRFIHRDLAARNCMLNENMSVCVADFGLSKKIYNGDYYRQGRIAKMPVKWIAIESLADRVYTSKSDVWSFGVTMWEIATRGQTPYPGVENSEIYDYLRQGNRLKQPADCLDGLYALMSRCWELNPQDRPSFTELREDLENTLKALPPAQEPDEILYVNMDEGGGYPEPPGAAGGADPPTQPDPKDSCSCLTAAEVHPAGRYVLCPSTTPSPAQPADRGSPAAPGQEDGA
Kind of test: LanthaScreen Eu kinase binding assay for Axl. The conditions noted are these: read-out: Axl kinase binding activity (Kd). Summed up: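 Competitive displacement of Alexa Fluor 647-labeled Tracer 236 from the kinase, with binding detected by TR-FRET with a Eu-labeled anti-GST antibody. Compounds were run as 8-step DMSO serial dilutions and incubated 1 h at room temperature. Kd was calculated relative to DMSO vehicle control wells.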

The target in test [2] is T2, Mer (Ba/F3 cells) (Homo sapiens, UniProt Q12866).
T2 sequence (Q12866 1-999): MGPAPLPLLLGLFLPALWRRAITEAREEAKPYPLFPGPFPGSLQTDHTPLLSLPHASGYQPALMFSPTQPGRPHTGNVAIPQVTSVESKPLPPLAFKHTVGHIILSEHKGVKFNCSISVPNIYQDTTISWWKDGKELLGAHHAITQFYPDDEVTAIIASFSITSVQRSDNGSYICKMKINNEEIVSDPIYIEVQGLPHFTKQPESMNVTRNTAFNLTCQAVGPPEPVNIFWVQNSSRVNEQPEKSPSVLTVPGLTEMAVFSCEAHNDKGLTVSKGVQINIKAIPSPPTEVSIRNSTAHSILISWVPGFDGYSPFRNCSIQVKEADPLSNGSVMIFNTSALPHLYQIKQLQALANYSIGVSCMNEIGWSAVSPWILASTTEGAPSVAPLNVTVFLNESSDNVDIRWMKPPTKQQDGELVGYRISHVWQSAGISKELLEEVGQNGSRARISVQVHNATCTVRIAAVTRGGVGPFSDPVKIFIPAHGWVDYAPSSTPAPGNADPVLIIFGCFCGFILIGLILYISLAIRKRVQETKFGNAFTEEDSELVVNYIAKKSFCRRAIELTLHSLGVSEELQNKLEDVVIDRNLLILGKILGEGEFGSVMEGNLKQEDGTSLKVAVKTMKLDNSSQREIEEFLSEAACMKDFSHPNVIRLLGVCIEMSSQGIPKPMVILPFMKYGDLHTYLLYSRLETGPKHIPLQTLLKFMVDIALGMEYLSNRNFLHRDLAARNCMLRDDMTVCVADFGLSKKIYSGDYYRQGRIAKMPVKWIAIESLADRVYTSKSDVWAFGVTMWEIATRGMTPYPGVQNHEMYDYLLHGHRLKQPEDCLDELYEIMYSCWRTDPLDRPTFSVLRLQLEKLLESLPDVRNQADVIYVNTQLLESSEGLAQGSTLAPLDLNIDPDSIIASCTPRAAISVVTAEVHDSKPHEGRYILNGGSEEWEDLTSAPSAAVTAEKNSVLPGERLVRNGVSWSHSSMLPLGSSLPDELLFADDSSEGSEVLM
Kind of test: BaF3 viability assay, Mer-dependent cells. The note with it: read-out: Cellular Mer activity by Ba/F3 assay (IC50). The format is cell-based. An excerpt:
In this system, IL-3-dependent Ba/F3 cells are modified to express an activated recombinant kinase (in the present case Axl, Mer and CSF1R). Following removal of IL-3, the modified cells are dependent on the activity of the recombinant kinase for survival and proliferation. Inhibition of such kinase(s) through test compounds reduces survival and proliferation of the cells.
Cell lines were maintained in growth media (GM) consisting of RPMI 1640 supplemented with 10% FBS. Cells in logarithmic-phase growth were harvested and 5,000 cells were distributed into each well of a 384-well plate in 50 μl GM. Parental cells (or experimental assays where specified) were further supplemented with 2 ng/ml IL-3 to support cell growth and survival. Fifty nanoliters of the indicated reference standard or experimental compound were added to appropriate wells (in duplicate) and the cells were cultured for 48 h at 37° C./5% CO2. Viability was determined by adding 10 μl Cell Titer Glo and measuring luminescence, which is reported as relative light units (RLU) measured in counts per second. The following calculations and formulas are used for data analysis using GraphPad Prism software: The curve fitting was made using the Dose response curves-Inhibition.

As a reminder, the Kd is the concentration at which binding is half-saturated.

Consider `CCCn1cc(OCCC(O)CO)c(C(=O)Nc2ccc(Oc3ccnc4cc(OC)c(OC)cc34)cn2)n1` (stereo not shown) [Compound 15], for which the Kd in test [1] is less than 100 nM. Moreover, in test [2], the GI50 was in the range of 1000 to 10000 nM.

On to `COc1cc2nccc(Oc3ccc(NC(=O)c4nn(CC(C)O)cc4OCC(F)(F)F)nc3)c2cc1OC` (stereo not shown) [Compound 17], for which, in test [1], the Kd is less than 100 nM. Further, the GI50 in test [2] was less than 1000 nM. Consider `COc1cc2nccc(Oc3ccc(NC(=O)c4nn(CCCO)cc4OCC(F)(F)F)nc3)c2cc1OC` [Compound 18], for which the Kd in test [1] is less than 100 nM. In addition, in test [2], the GI50 was less than 1000 nM.

For `COc1cc2nccc(Oc3ccc(NC(=O)c4nn(C[C@@H](C)O)cc4OCC(F)(F)F)nc3)c2cc1OC` [Compound 29], in test [1], the Kd is less than 100 nM. Besides, the GI50 in test [2] is less than 1000 nM. As to `COc1cc2nccc(Oc3ccc(NC(=O)c4nn(C[C@H](C)O)cc4OCC(F)(F)F)nc3)c2cc1OC` [Compound 30], in test [1], the Kd was less than 100 nM. For the same molecule, the GI50 in test [2] was less than 1000 nM. For `CCCn1cc(OC(C)C)c(C(=O)Nc2ccc(Oc3ccnc4cc(OC)c(OC(F)(F)F)cc34)c(F)c2)n1` [Compound 35], the Kd in test [1] was no less than 500 nM. The GI50 in test [2] was no less than 10000 nM.

Take `COc1cc2nccc(Oc3ccc(NC(=O)c4nn(C5CCCCC5)cc4OCC(F)(F)F)nc3)c2cc1OC` [Compound 69]: in test [1], the Kd was less than 100 nM. The same measure, in the same setting: the figure for `COc1cc2nccc(Oc3ccc(NC(=O)c4nn(C5CCNC5)cc4OCC(F)(F)F)nc3)c2cc1OC` (stereo not shown) [Compound 70] is less than 100 nM; for `COc1cc2nccc(Oc3ccc(NC(=O)c4nn(CC5CCCC5)cc4OCC(F)(F)F)nc3)c2cc1OC` [Compound 71] it is less than 100 nM; for `COc1cc2nccc(Oc3ccc(NC(=O)c4nn(CC5CCNC5)cc4OCC(F)(F)F)nc3)c2cc1OC` (stereo not shown) [Compound 72] it is less than 100 nM. For `COc1cc2nccc(Oc3ccc(NC(=O)c4nn(CC5CNC5)cc4OCC(F)(F)F)nc3)c2cc1OC` [Compound 73], in test [1], the Kd fell in the range of 100 to 500 nM. Same read-out and setting: the value for `COc1cc2nccc(Oc3ccc(NC(=O)c4nn(C5CCNC5)cc4OCC(F)(F)F)c(F)c3)c2cc1OC` (stereo not shown) [Compound 74] was 100 to 500 nM; that for `COc1cc2nccc(Oc3ccc(NC(=O)c4nn(CCN)cc4OCC(F)(F)F)c(F)c3)c2cc1OC` [Compound 75] was 100 to 500 nM. In the case of `COc1cc2nccc(Oc3ccc(NC(=O)c4nn(CC(C)O)cc4OCC(F)(F)F)c(F)c3)c2cc1OC` (stereo not shown) [Compound 76], the equilibrium dissociation constant (Kd) in test [1] is less than 100 nM. As to `COc1cc2nccc(Oc3ccc(NC(=O)c4nn(CCC(F)(F)F)cc4OCC4CCC4)nc3)c2cc1OC` [Compound 166], the dissociation constant Kd in test [1] is less than 100 nM. For `CCCn1cc(OCC2CCC2)c(C(=O)Nc2ccc(Oc3ccnc4cc(OC)c(OC(F)(F)F)cc34)cn2)n1` [Compound 167], the dissociation constant (Kd) in test [1] was less than 100 nM. For the molecule `COc1cc2nccc(Oc3ccc(NC(=O)c4nn(CCNC5CC5)cc4OCC(F)(F)F)nc3)c2cc1OC` [Compound 168], the dissociation constant (Kd) in test [1] is less than 100 nM. For `COc1cc2nccc(Oc3ccc(NC(=O)c4nn(CC5CCN(C)C5)cc4OCC(F)(F)F)nc3)c2cc1OC` (stereo not shown) [Compound 169], in test [1], the equilibrium dissociation constant (Kd) was less than 100 nM. As to `COc1cc2nccc(Oc3ccc(NC(=O)c4nn(C5CC5)cc4OCCC(F)(F)F)nc3)c2cc1OC` [Compound 170], in test [1], the Kd is less than 100 nM.

For `COCCOc1cn(C2CC2)nc1C(=O)Nc1ccc(Oc2ccnc3cc(OC)c(OC)cc23)nn1` [Compound 171], the Kd in test [1] was less than 100 nM. The same measure, in the same setting: the figure for `COc1cc2nccc(Oc3ccc(NC(=O)c4nn(C5CC5)cc4OCC4CNC4)nn3)c2cc1OC` [Compound 172] is no less than 500 nM; for `COc1cc2nccc(Oc3ccc(NC(=O)c4nn(C5CC5)cc4OCCC(F)(F)F)nn3)c2cc1OC` [Compound 173] it is less than 100 nM. For the molecule `COc1cc2nccc(Oc3ccc(NC(=O)c4nn(CC(C)O)cc4OCC4CN(C)C4)nc3)c2cc1OC` (stereo not shown) [Compound 174], the dissociation constant Kd in test [1] is no less than 500 nM. As to `COc1cc2nccc(Oc3ccc(NC(=O)c4nn(CC(C)O)cc4OCC(F)F)nc3)c2cc1OC` (stereo not shown) [Compound 175], the Kd in test [1] is less than 100 nM.

With `COc1cc2nccc(Oc3ccc(NC(=O)c4nc(CCC(F)(F)F)oc4CCC4CCC4)nc3)c2cc1OC` [Compound 176], the Kd in test [1] is 100 to 500 nM.

As to `CCCn1cc(OCCN(C)C)c(C(=O)Nc2ccc(Oc3ccnc4cc(OC)c(OC)cc34)cn2)n1` [Compound 177], the Kd in test [1] was less than 100 nM.

Take `COc1cc2nccc(Oc3ccc(NC(=O)c4cc(C5CC5)cnc4OCC(F)(F)F)nc3)c2cc1OC` [Compound 178]: in test [1], the Kd was less than 100 nM. As for `COc1cc2nccc(Oc3ccc(NC(=O)c4sc(C5CC5)cc4OCC(F)(F)F)nc3)c2cc1OC` [Compound 179], in test [1], the Kd was in the range of 100 to 500 nM.
